Among the data in paper PMC2212834 (The Journal of Experimental Medicine, 2005) are Kd values, retold here.

This assay deals with T1, ChemR23 (Homo sapiens, UniProt Q99788).
T1 sequence (Q99788 1-373): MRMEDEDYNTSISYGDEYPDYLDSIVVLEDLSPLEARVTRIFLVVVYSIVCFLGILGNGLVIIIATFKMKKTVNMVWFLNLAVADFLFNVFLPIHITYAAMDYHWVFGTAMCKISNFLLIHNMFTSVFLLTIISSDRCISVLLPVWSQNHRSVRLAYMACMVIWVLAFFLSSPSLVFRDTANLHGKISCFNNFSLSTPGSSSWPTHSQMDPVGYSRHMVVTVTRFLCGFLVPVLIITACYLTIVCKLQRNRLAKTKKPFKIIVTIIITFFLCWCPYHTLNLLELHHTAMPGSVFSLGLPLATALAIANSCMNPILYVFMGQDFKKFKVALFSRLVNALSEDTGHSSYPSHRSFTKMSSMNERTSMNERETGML
The experiment in a line: [3H]-RvE1 saturation radioligand binding. Type of assay: cell-based.

In turn, `CC[C@@H](O)/C=C/C=C\C[C@@H](O)/C=C/C=C/C=C\[C@@H](O)CCCC(=O)O` [RvE1, 5S,12R,18R-trihydroxy-6Z,8E,10E,14Z,16E-EPA] registered a Kd of 0.0113 ± 0.0054 µM.

One may read the Kd as the equilibrium constant for the complex coming apart. Read a high Kd as weaker binding.
